For series [1], the system named is HCV replicon (Clone A cells, Huh7, subgenomic hepatits C virus RNA). Kind of series: HCV Neo screening assay (HCV replicon, NPTII ELISA). The note with it: for EC50 / inhibition at 25 µM: Hepatitis C virus, Huh-7; for EC50: Secondary Data, HCV; for inhibition at 25 µM: primary screening, 25 μM final concentration, 24 hours, percent inhibition of viral replication, read-out: HCV Inh; for HCV TI: therapeutic index CC50/EC50, HCV. The series is classed as cell-based, hepatitis C virus.

In series [2] the test system is DNG (D2-hRuPac cells). Kind of series: DNG antiviral activity, D2-hRuPac cells, Renilla luciferase. The class given is cell-based, Dengue fever virus. To be noted: Dengue virus, secondary screening.
The subject of series [3] is EBOV minigenome. Description: microbe, parasite or virus in culture. The class given is cell-based, Ebola virus. The note with it: Zaire ebolavirus; for inhibition at 25 µM: 24 h, read-out: EBOV Inh; for EC50: read-out: EBOV EC50.
Series [4] concerns SINV (SR19-F-luc cells). Kind of series: SINV antiviral activity, SR19-F-luc cells, Firefly luciferase. The class given is cell-based. The note with it: Sindbis virus; for inhibition at 25 µM: primary screening, 25 μM final concentration, 24 hours, percent inhibition of viral replication, read-out: SINV Inh; for EC50: secondary screening, SR19-F-luc cells.
Series [5] in a line: in vitro.
The subject of series [6] is YFV (YF-hRuPac cells). Kind of series: microbe, parasite or virus in culture. The series is classed as cell-based, yellow fever virus. The note with it: for inhibition at 25 µM / EC50: Yellow fever virus; for inhibition at 25 µM: 24 h, read-out: YFV Inh; for EC50: read-out: YFV EC50.
In series [7] the test system is RSV minigenome. Description: RSV minigenome-dependent β-galactosidase expression assay (RSV β-Gal). The class given is cell-based, respiratory syncytial virus. To be noted: for EC50 / inhibition at 25 µM: human respiratory syncytial virus; for EC50: Secondary Data, RSV, read-out: RSV EC50; for inhibition at 25 µM: primary screening, 25 μM final concentration, 24 hours, percent inhibition of viral replication, read-out: RSV Inh; for RSV TI: therapeutic index CC50/EC50, RSV.

Series [8] has as its system WNV (WN-hRuPac cells). Description: WNV antiviral activity, WN-hRuPac cells, Renilla luciferase. The series is classed as cell-based, West Nile virus. To be noted: for EC50 / inhibition at 25 µM: West Nile virus; for EC50: Secondary Data, WNV, read-out: WNV EC50; for inhibition at 25 µM: primary screening, 25 μM final concentration, 24 hours, percent inhibition of viral replication, read-out: WNV Inh; for WNV TI: therapeutic index CC50/EC50, WNV.

In the case of `COc1ccc(Nc2cc(C)nc3c2ccc2ccccc23)cc1` [Compound 7], the EC50 in series [1] was 5.87 µM; in series [2] it was 17 µM; in series [3], 10.8 µM; in series [4], ≥ 75 µM; in series [6] it was ≥ 75 µM; in series [7], 10 µM. Further, in series [8], the EC50 is ≥ 75 µM. Besides, the inhibition at 25 µM in series [1] was 104%; in series [3], 85.3%; in series [4], 7.58%; in series [6], 64.1%; in series [7] it was 76.9%; in series [8], 34.3%. The “HCV TI” value in series [1] was found to be 2.39. The CC50 in series [5] (DNG CC50) was ≥ 75 µM; in series [5] (EBOV CC50), ≥ 75 µM; in series [5] (HCV CC50), 14 µM; in series [5] (RSV CC50) it was ≥ 75 µM; in series [5] (SINV CC50) it was ≥ 75 µM; in series [5] (WNV CC50), ≥ 75 µM. In addition, the CC50 in series [5] (YFV CC50) is ≥ 75 µM. In series [7], the “RSV TI” value is listed as 7.5.

For the compound `CCOC(=O)c1cnc2c(Cl)cccc2c1NCc1ccco1` [Compound 55], the inhibition at 25 µM is 21.9% in series [1]; 72.8% in series [3]; 29.1% in series [4]; 94.3% in series [6]; 81.5% in series [7]; 94.9% in series [8]. The EC50 in series [2] was 8.53 µM; in series [3] it was 10.4 µM; in series [4] it was ≥ 75 µM; in series [6] it was 6.07 µM; in series [7] it was 5.46 µM; in series [8], 13 µM. The CC50 in series [5] (DNG CC50) is 48.3 µM; in series [5] (EBOV CC50), 48.3 µM; in series [5] (HCV CC50), ≥ 75 µM; in series [5] (RSV CC50), 48.3 µM; in series [5] (SINV CC50), 48.3 µM; in series [5] (WNV CC50) it was 48.3 µM. In series [5] (YFV CC50), this compound gave a CC50 of 48.3 µM. The “YFV TI” value in series [6] is reported as 7.96. Moreover, in series [7], the “RSV TI” value came to 8.85. The “WNV TI” value in series [8] was found to be 3.72.

Regarding `CCOC(=O)c1cnc2c(Cl)cc(Cl)cc2c1NCc1ccco1` [Compound 52], the EC50 in series [1] is 12.5 µM; in series [2], 15.8 µM; in series [3] it was 13.2 µM; in series [4] it was 24.8 µM; in series [6], 4.99 µM; in series [7], 2.51 µM. The EC50 in series [8] came out at 10.8 µM. Moreover, the inhibition at 25 µM in series [1] was 76.5%; in series [3] it was 76.9%; in series [4], 10.2%; in series [6] it was 90%; in series [7], 99.1%; in series [8] it was 88.9%. In series [1], the “HCV TI” value came to 5.62. Further, the CC50 is 44.1 µM in series [5] (DNG CC50); 44.1 µM in series [5] (EBOV CC50); 70.2 µM in series [5] (HCV CC50); 44.1 µM in series [5] (RSV CC50); 44.1 µM in series [5] (SINV CC50); 44.1 µM in series [5] (WNV CC50). The compound also had a CC50 in series [5] (YFV CC50) of 44.1 µM. Further, the “YFV TI” value in series [6] came to 8.84. In series [7], the “RSV TI” value is 17.57. Moreover, the “WNV TI” value in series [8] was found to be 4.08.

For the compound `CCCOC(=O)c1ccc(Nc2cc(C)nc3ccc(C(=O)OCC)cc23)cc1` [Compound 63], the inhibition at 25 µM in series [1] amounted to 57.2%; in series [3], 92%; in series [4] it was 53.3%; in series [6], 54.2%; in series [7], 56.4%; in series [8] it was 55%. In addition, the EC50 in series [2] is 44.8 µM; in series [3], 9.03 µM; in series [4], ≥ 75 µM; in series [6], 51.8 µM; in series [7], 72.2 µM; in series [8], 44.1 µM. Further, the CC50 in series [5] (DNG CC50), in series [5] (EBOV CC50), in series [5] (RSV CC50), in series [5] (SINV CC50), in series [5] (WNV CC50) and in series [5] (YFV CC50) was 70.1 µM in each case. Also, the “YFV TI” value in series [6] is 1.35. In addition, in series [7], the “RSV TI” value worked out at 0.97. Further, the “WNV TI” value in series [8] turned out to be 1.59.

Broadly, the EC50 is the concentration giving half of the maximal effect.

The values above are taken from patent US20090221624A1, “4-AMINOQUINOLINE COMPOUNDS FOR TREATING VIRUS-RELATED CONDITIONS” (priority 2005, published 2009).
